Values of other authors in patent publication US20040101555A1, “Method for stable and controlled delivery of (—)-hydroxycitric acid” (priority 2002, published 2004).

What was measured:
[1] = single large oral dose or two divided oral doses totaling one fourth of the single dose; high-sugar diet
[2] = over a three week period; higher dosage, alone

Row | Structure (SMILES) | reduction in food consumption [1] | average weight loss [2]
1 | O=C(O)CC(O)(C(=O)O)C(O)C(=O)O (single isomer, unassigned; (-)) [HCA, (−)-Hydroxycitric acid] | ≥ 10% | 
2 | O=C([O-])CC(O)(C(=O)[O-])C(O)C(=O)[O-].[K+].[K+].[K+] (stereo not drawn) [potassium (−)-hydroxycitirate, potassium (−)-hydroxycitrate] |  | 3 pounds per week
